Values joined by “and” are separate entries in the source; they are usually repeats but may differ in a detail not shown here. Identical values can stand only once.
Legend:
[1] = Solubility studies of the activators (saturated solution in isohexane or methylcyclohexane); type: physicochemical
Procedure, shortened: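 Solid activators stirred in excess with isohexane or methylcyclohexane for several hours at 25 °C, filtered, and a filtrate aliquot evaporated and weighed. Emulsion-forming activators titrated with solvent until homogeneous, with activator mass found gravimetrically. Saturated concentration given in mM.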

[2] = as above; type: physicochemical; conditions: methylcyclohexane
[3] = RUN B: ethylene-octene polymerization in parallel pressure reactor, activator diluent toluene or methylcyclohexane; conditions: ethylene-octene copolymerization; for activity: Cat 1 (MCN-1)
Description: RUN B: Polymerization in Parallel Pressure Reactor.
A series of ethylene-octene polymerizations were performed in the parallel pressure reactor according to the procedure described above. […] In a typical experiment an automated syringe was used to introduce into the reactor the following reagents, if utilized, in the following order: isohexane (0.35 mL), an isohexane solution of TNOAL scavenger (0.005 M, 60 μL), additional isohexane (0.35 mL), a toluene solution of the respective polymerization catalyst (150 μL, 0.4 mM, 20 nm [cat]/100 μL [toluene]), additional isohexane (0.35 mL), a toluene or methylcyclohexane solution of the respective activator (150 μL, 0.4 mM, (20 nm [act]/100 μL[ diluent])), then additional isohexane so that the total solvent volume for each run was 5 mL. Catalyst and activator were used in a 1:1 ratio. Each reaction was performed at a specified temperature range between 50 and 120° C., typically 95° C., while applying about 100 psig of ethylene (monomer) gas. Each reaction was allowed to run for about 1 hour (˜3600 seconds) or until approximately 20 psig of ethylene gas uptake was observed, at which point the reactions were quenched with air (˜300 psig). When sufficient polymer yield was attained (e.g., at least ˜10 mg), the polyethylene product was analyzed by Rapid GPC, described below.
In a typical experiment, the anilinium borate activators were combined with toluene or methylcyclohexane as diluent and introduced to the parallel, pressure reactor via syringe. By this mechanism of activator introduction, only well dissolved activators could be delivered to the reactor providing a means to discriminate between the polymerization performance of long chain soluble anilinium borates vs. conventional anilinium borates. Following addition of activator, the catalyst Cat 1 was introduced, via syringe as well-dissolved toluene solution and the polymerization was conducted per the methodology described above.

Molecule	Solubility limit in i-hexane (mM at 25° C.) ([1]; isohexane)	Solubility limit in i-hexane (wt % at 25° C.) ([1]; isohexane)	Solubility limit in MeCy (mM at 25° C.) ([1]; methylcyclohexane)	Solubility limit in MeCy (wt % at 25° C.) [2]	quantity of polymer obtained with methylcyclohexane as diluent ([3]; Cat 1, activator in methylcyclohexane)	activity ([3]; activator diluent MeCy (methylcyclohexane))	activity ([3]; activator diluent Toluene, listed as C2)
CCCCCCCCCCCCCCCCCC[NH+](CCCCCCCCCCCCCCCCCC)c1ccc(C)cc1.Fc1c(F)c(F)c2c(F)c([B-](c3c(F)c(F)c4c(F)c(F)c(F)c(F)c4c3F)(c3c(F)c(F)c4c(F)c(F)c(F)c(F)c4c3F)c3c(F)c(F)c4c(F)c(F)c(F)c(F)c4c3F)c(F)c(F)c2c1F [DOdTH-BF28, 4-methyl-N,N-dioctadecylbenzenaminium-BF28]	120 mM	29 wt %	160 mM	35 wt %			
N,N-dimethylanilinium tetrakis(heptafluoronaphthalen-2-yl)borate [DMAH-BF28, reference compound]					insufficient for analysis	0.0 kg/mmol/h	441.3 kg/mmol/h and 392.4 kg/mmol/h and 390.1 kg/mmol/h and 408.1 kg/mmol/h

Source: patent US11414436B2, “Non-coordinating anion type activators containing cation having large alkyl groups” (ExxonMobil Chemical Patents Inc., priority 2018, dated 2022)
